Here are results for 1 molecule from US11679100B2, “Methods of enhancing immunity” (The Regents of the University of California, priority 2018, dated 2023).

The assay concerns CL66-Luc breast tumors. The assay can be described thus: Orthotopic CL66-Luc breast tumor model. Format: in vivo, Balb/cJ mice. The protocol: Tumor Studies—Subcutaneous tumor studies: 5×10^5 LLC or B16 cells were injected subcutaneously into syngeneic (C57BL/6) 6- to 8-week old WT or Itgam^−/− mice (n=18). Tumors were excised at 7, 14 or 21 days, cryopreserved in OCT, lysed for RNA purification or collagenase-digested for flow cytometric analysis of CD11b+, F4/80+ and Gr1+ expression. Tumor volumes were calculated using the equation (l^2×w)/2. CL66-luc cells (0.5×10^6 cells) were suspended in 50 μL of basement membrane extract Matrigel (BD Pharmingen) in PBS (1:1) and inoculated orthotopically in the fourth mammary fat pad of female Balb/cJ mice. Tumor dimensions were measured every 2 days, and tumor volume was calculated using the equation: V (mm^3)=[…], where length is the longest diameter of the tumor and width is the shorter diameter.
Mice were divided into four cohorts: vehicle control treated, LA1 only treated, Taxol only treated, LA1 and Taxol treated. LA1 (2 mg/kg) was dissolved in 2% DMSO and 1% Tween-20 in saline and Taxol (2.5 mg/kg) was dissolved in a 1:1:6 ratio of Cremophor EL: Ethanol:Saline. LA1 was administered by intraperitoneal injection (i.p.) daily, while Taxol was administered every other day by i.p. injection until end-point. LA1+Taxol treated mice received LA1 i.p. in the morning followed by Taxol i.p. within 4 hours. Tumor burden was evaluated every other day by caliper measurements. Prior to tissue collection, mice were anesthetized by ketamine/xylazine and the lungs were perfused with PBS followed by 10% formalin and harvested for fixation. Mammary tumor tissue was harvested and divided for fixation (10% formalin or OCT), snap frozen, or made into single-cell suspensions and analyzed by flow cytometric analysis. For survival studies, Balb/c mice bearing CL66-derived tumors were treated for 6 weeks after the first treatment and monitored thereafter. End point was considered when the tumor reached […] in diameter (n=10-15).
Immunohistochemistry—Tumor samples were collected and cryopreserved in O.C.T. Sections (5 μm) were fixed in 100% cold acetone, blocked with 8% normal goat serum for 2 hours, and incubated with primary antibodies at […] for 2 hours at room temperature. Sections were washed 3 times with PBS and incubated with fluorescent secondary antibodies. Primary antibodies where: F4/80 (BM8, eBioscience), CD4 (H129.19, BD Bioscience), CD8 (53-6.7, BD Bioscience), CD31 (MEC13.1, BD Bioscience), desmin (RB0914-P1, LabVision, Thermo Scientific), and anti-smooth muscle actin (SMA) (1A4, Sigma-Aldrich). Slides were counterstained with 4′,6-diamidino-2-phenylindole (DAPI) to identify nuclei. Immunofluorescence images were collected on a Nikon microscope (Eclipse TE2000-U) and analyzed using Metamorph image capture and analysis software (Version 6.3r5, Molecular Devices). Pixels/field or cell number/field were quantified in five 100× fields from 5 biological replicates. For LA1 studies, immunohistochemical staining was quantified by counting marker positive cells in 3 different areas analyzed at 40× using a light microscope for each tumor tissue (n=4−6). Tissues that were stained with fluorochrome conjugated secondary antibodies were counter stained with DAPI and analyzed using the Zeiss 700 LSM confocal microscope and Zen software (Carl Zeiss Group, Hartford, Conn.).
Alternatively, immunostaining was performed on formalin fixed, paraffin-embedded tumor tissues. Deparaffinized tissue sections (5 μm) were either stained with hemotoxylin-eosin or were subjected to antigen retrieval by steam heating in an acidic pH solution (Citrate-based, Vector Laboratories) prior to immune staining for α-SMA (clone 1A4, Fisher Scientific), MMP9 (polyclonal rabbit, Abcam), S100A8 (goat polyclonal (M-19), Santa Cruz), CD31 (clone RM0032-1D12, Abcam), or ARG1 (sc-18351, Santa Cruz) at 4° C. overnight. […]

Turning to `O=C(O)c1ccc(-c2ccc(/C=C3\SC(=S)N(Cc4ccccc4)C3=O)o2)cc1` [LA1, leukadherin 1], for the setting “CL66-Luc tumors”, the “CD8+ T cells in tumors” value is “increased the presence of CD8+ T cells”; the “MHCII+ macrophages in tumors” value is “increased the presence of MHCII+ macrophages”; the “expression of Arginase1, S100A8 and MMP9 in tumors” value was “inhibited expression of Arginase1, S100A8 and MMP9 in CL66-Luc tumors”. Further, the “MHCII, CD206, Arg1, MMP9 and S100A8 expression in TAMs” value (CL66 Luc model) is “stimulating MHCII expression and reducing CD206, Arg1, MMP9 and S100A8 expression in TAMs”. The “CL66-Luc tumor growth, combination with irradiation” value (LA1 2 mg/kg + IR 20 Gy) is reported as “synergized with irradiation to suppress CL66-Luc breast tumor growth”. Also, the CL66-Luc tumor growth result (LA1 2 mg/kg i.p. daily, compared with taxol) is given as “potently reduced tumor growth in syngeneic, orthotopically implanted CL66-Luc breast tumors more effectively than taxol”. Where the note is “mouse models of cancer”, the survival entry was “prolong survival in mouse models of cancer”. Where the note is “syngeneic, immune competent mice”, the “CL66 Luc tumor growth relative to control tumors” value came out at 25%.
